pIC50: −log10 of the molar value.
Assays:
[1] = DRUGMATRIX: Nicotinic Acetylcholine radioligand binding (ligand: [125I] Epibatidine); assay type: cell membranes, Membrane; conditions: imr-32; Not Active = under 50% inhibition at 10 µM
[2] = target: T1, Angiotensin-converting enzyme (Oryctolagus cuniculus, UniProt P12822); assay type: tissue-based, Lung;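 further: enzymatic inhibition of angiotensin-converting enzyme measured with FAPGG as the substrate; in other assays of this panel Not Active means under 50% inhibition at 10 µM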
T1 sequence (P12822 whole entry): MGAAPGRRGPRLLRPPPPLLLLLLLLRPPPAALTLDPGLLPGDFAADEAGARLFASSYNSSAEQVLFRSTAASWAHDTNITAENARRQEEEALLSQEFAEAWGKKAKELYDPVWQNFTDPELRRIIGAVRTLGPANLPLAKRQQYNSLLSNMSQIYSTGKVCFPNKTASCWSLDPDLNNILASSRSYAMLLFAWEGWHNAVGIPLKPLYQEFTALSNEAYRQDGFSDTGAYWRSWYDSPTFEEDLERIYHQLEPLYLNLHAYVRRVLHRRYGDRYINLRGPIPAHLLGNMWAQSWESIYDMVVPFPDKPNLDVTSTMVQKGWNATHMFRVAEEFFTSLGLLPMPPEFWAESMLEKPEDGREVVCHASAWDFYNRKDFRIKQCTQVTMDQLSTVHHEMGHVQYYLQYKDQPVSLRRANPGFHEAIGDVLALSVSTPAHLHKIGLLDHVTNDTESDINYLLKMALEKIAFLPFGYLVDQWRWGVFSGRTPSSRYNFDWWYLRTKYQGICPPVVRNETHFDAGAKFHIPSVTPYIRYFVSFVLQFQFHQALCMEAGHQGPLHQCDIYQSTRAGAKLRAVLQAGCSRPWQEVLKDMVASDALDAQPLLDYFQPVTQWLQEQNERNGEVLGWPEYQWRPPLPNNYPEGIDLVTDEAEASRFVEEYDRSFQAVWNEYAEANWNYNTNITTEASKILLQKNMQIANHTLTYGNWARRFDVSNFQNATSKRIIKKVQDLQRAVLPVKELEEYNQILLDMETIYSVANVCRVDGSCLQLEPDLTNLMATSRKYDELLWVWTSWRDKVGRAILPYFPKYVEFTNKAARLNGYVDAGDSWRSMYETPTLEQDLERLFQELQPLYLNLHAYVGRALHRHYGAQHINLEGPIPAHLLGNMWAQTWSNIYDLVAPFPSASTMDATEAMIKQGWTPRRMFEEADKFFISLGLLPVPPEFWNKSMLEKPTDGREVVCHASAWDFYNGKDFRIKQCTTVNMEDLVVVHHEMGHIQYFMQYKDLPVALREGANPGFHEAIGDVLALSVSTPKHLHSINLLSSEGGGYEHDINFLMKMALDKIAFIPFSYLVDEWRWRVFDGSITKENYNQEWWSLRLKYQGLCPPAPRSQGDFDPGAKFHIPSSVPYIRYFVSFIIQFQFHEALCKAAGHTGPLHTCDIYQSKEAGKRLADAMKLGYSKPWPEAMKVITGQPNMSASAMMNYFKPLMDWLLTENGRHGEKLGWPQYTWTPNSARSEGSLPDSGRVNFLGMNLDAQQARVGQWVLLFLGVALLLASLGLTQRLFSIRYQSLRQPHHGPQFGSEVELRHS

[3] = target: Vascular endothelial growth factor receptor 1 (Homo sapiens, UniProt P17948); test: biochemical; assay type: cell-based, HUVEC; conditions: huvec; further: in other assays of this panel Not Active means under 50% inhibition at 10 µM
[4] = DRUGMATRIX: Calcium Channel Type L, Benzothiazepine radioligand binding (ligand: [3H] Diltiazem); assay type: cell membranes, Rattus norvegicus, Wistar, Brain, Membrane; conditions: Not Active = under 50% inhibition at 10 µM
[5] = target: T2, C-X-C chemokine receptor type 2 (Homo sapiens, UniProt P25025); assay type: cell membranes, Membrane; conditions: cho-k1; further: in other assays of this panel Not Active means under 50% inhibition at 10 µM
T2 sequence (P25025 whole entry): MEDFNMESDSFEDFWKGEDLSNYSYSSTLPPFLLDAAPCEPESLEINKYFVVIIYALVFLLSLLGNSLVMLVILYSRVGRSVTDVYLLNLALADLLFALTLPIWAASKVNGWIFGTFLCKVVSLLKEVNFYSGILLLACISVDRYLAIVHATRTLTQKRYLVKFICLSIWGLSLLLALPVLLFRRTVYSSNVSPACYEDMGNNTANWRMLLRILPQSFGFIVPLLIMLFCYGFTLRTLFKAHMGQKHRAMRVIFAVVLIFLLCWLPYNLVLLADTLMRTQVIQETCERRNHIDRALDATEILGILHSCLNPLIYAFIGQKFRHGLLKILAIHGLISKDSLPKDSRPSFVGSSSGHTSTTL

[6] = target: Acetylcholinesterase (Homo sapiens, UniProt P22303); test: DRUGMATRIX: Acetylcholinesterase enzyme inhibition (substrate: acetylthiocholine); assay type: cell-based, HEK293; conditions: Not Active = under 50% inhibition at 10 µM
[7] = target: Cytochrome P450 2E1 (Homo sapiens, UniProt P05181); conditions: bti-tn-5b1-4; further: in other assays of this panel Not Active means under 50% inhibition at 10 µM
Cytochrome P450 2E1, sequence (P05181 whole entry): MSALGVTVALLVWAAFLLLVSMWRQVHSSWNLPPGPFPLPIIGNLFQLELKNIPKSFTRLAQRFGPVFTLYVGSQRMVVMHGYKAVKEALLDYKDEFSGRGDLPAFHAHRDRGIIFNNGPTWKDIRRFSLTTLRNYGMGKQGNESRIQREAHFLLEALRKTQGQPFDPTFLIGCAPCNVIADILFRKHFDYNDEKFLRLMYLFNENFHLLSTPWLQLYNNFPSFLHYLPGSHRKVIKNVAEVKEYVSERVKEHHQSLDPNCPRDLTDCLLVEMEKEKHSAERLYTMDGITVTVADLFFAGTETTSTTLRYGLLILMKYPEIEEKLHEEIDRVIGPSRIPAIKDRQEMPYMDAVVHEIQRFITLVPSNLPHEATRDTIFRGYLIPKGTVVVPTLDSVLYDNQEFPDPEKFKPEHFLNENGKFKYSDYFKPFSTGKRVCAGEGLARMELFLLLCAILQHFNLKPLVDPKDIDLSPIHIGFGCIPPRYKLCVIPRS

Vascular endothelial growth factor receptor 1, sequence (P17948 whole entry): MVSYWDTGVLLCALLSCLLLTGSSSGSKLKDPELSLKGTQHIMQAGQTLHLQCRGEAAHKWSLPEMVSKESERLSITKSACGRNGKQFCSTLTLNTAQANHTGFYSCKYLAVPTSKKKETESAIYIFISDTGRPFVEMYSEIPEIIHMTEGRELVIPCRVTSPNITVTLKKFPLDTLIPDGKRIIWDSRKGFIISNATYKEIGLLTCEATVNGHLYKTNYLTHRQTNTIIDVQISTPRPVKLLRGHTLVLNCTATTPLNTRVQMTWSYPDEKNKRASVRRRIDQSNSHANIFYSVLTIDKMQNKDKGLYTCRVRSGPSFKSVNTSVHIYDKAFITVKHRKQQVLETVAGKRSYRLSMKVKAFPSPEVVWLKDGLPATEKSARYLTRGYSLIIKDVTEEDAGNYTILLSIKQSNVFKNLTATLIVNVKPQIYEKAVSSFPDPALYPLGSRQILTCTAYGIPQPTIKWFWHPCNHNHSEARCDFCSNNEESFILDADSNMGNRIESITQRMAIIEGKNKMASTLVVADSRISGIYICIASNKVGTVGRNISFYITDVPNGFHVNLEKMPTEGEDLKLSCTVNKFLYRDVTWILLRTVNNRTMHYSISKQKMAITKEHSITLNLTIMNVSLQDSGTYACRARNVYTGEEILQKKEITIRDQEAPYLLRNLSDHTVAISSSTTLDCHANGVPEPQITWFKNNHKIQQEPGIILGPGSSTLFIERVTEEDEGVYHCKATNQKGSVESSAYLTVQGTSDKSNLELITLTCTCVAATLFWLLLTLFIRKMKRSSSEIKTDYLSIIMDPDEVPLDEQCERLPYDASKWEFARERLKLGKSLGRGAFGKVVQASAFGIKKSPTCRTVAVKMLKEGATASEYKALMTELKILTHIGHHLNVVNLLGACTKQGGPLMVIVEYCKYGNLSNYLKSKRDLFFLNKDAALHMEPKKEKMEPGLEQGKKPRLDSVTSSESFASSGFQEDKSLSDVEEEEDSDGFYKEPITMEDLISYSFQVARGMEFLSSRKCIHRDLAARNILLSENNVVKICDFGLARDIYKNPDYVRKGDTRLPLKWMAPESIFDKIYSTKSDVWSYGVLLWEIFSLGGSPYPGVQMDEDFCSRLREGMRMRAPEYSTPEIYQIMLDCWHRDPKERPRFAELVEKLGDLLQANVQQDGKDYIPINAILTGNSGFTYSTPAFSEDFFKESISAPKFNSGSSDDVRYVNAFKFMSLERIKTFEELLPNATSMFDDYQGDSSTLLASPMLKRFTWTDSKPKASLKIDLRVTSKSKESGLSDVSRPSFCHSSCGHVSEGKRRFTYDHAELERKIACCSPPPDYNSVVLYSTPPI
Acetylcholinesterase, sequence (P22303 whole entry): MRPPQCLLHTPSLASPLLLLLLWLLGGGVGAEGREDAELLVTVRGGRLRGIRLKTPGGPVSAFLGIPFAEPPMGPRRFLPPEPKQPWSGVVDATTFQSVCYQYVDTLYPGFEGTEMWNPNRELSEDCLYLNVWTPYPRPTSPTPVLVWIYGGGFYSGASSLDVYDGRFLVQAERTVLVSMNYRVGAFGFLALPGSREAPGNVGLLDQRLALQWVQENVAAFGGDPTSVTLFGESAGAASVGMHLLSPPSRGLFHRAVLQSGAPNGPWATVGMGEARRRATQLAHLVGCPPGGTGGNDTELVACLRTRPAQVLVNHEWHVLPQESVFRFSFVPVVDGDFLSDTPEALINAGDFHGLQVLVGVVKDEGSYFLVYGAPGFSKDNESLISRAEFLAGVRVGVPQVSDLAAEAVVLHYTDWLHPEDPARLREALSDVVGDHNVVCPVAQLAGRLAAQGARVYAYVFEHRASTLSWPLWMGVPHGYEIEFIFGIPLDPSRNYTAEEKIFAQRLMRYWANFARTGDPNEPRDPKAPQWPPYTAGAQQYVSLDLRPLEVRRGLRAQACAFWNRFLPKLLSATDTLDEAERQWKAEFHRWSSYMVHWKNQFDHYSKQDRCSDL

Compound | IC50 [1] | Ki [1] | IC50 [2] | Ki [2] | IC50 [3] | Ki [3] | IC50 [4] | Ki [4] | IC50 [5] | Ki [5] | IC50 ([6]; hek293) | Ki ([6]; hek293) | IC50 [7] | Ki [7] | pIC50 ([6]; read-out: IC50)
STANNOUS FLUORIDE | Not Active | Not Active | Not Active | Not Active | Not Active | Not Active | Not Active | Not Active | Not Active | Not Active | Not Active | Not Active | Not Active | Not Active | –
C[C@@H](O)[C@H]1C(=O)N2C(C(=O)O)=C(S[C@@H]3CN[C@H](C(=O)N(C)C)C3)[C@H](C)[C@H]12 [MEROPENEM] | Not Active | Not Active | Not Active | – | Not Active | – | Not Active | Not Active | Not Active | – | Not Active | – | Not Active | Not Active | –
COc1ncnc(NS(=O)(=O)c2ccc(N)cc2)c1OC [SULFADOXINE] | Not Active | Not Active | Not Active | – | Not Active | – | Not Active | Not Active | Not Active | – | Not Active | – | Not Active | Not Active | –
CCCc1nn(C)c2c(=O)[nH]c(-c3cc(S(=O)(=O)N4CCN(C)CC4)ccc3OCC)nc12 | Not Active | Not Active | Not Active | – | Not Active | – | Not Active | Not Active | Not Active | – | Not Active | – | Not Active | Not Active | –
COc1ccc(/C=C/C(=O)Nc2ccccc2C(=O)O)cc1OC | Not Active | Not Active | Not Active | – | Not Active | – | Not Active | Not Active | Not Active | – | Not Active | – | Not Active | Not Active | –
CC1=C(CC(=O)O)c2cc(F)ccc2/C1=C\c1ccc(S(C)(=O)=O)cc1 [EXISULIND] | Not Active | Not Active | Not Active | – | Not Active | – | Not Active | Not Active | Not Active | – | Not Active | – | Not Active | Not Active | –
CN1C2CCCC1CC(NC(=O)c1nn(C)c3ccccc13)C2 (stereo unspecified) [GRANISETRON] | – | – | Not Active | – | Not Active | – | – | – | Not Active | – | Not Active | – | Not Active | Not Active | –
Cc1cn([C@H]2C[C@H](N=[N+]=[N-])[C@@H](CO)O2)c(=O)[nH]c1=O [ZIDOVUDINE] | Not Active | Not Active | Not Active | – | Not Active | – | Not Active | Not Active | Not Active | – | Not Active | – | Not Active | Not Active | –
OCCN1CCN(CCCN2c3ccccc3Sc3ccc(C(F)(F)F)cc32)CC1 [FLUPHENAZINE] | – | – | Not Active | – | Not Active | – | – | – | Not Active | – | Not Active | – | Not Active | Not Active | –
CC(C)(C)NC[C@H](O)COc1nsnc1N1CCOCC1 [TIMOLOL] | Not Active | Not Active | Not Active | – | Not Active | – | Not Active | Not Active | Not Active | – | Not Active | – | Not Active | Not Active | –
Nc1nc2c(c(=O)[nH]1)N(C=O)C(CNc1ccc(C(=O)N[C@@H](CCC(=O)O)C(=O)O)cc1)CN2 (stereo partly specified) [LEUCOVORIN] | Not Active | Not Active | Not Active | – | Not Active | – | Not Active | Not Active | Not Active | – | Not Active | – | Not Active | Not Active | –
O=c1n(CCCN2CCN(c3cccc(Cl)c3)CC2)nc2ccccn12 [TRAZODONE] | – | – | Not Active | – | Not Active | – | – | – | Not Active | – | Not Active | – | Not Active | Not Active | –
COc1cc(C(=O)NS(=O)(=O)c2ccccc2C)ccc1Cc1cn(C)c2ccc(NC(=O)OC3CCCC3)cc12 [ZAFIRLUKAST] | Not Active | Not Active | Not Active | – | Not Active | – | Not Active | Not Active | Not Active | – | Not Active | – | Not Active | Not Active | –
CCOC(N)=O | Not Active | Not Active | Not Active | – | Not Active | – | Not Active | Not Active | Not Active | – | Not Active | – | Not Active | Not Active | –
CN(CCOc1ccc(CC2SC(=O)NC2=O)cc1)c1ccccn1 (stereo unspecified) [ROSIGLITAZONE] | Not Active | Not Active | Not Active | – | Not Active | – | Not Active | Not Active | Not Active | – | Not Active | – | Not Active | Not Active | –
CC(=O)O[C@H]1C[C@@H]2CC[C@@H]3[C@H](CC[C@@]4(C)[C@H]3C[C@H]([N+]3(C)CCCCC3)[C@@H]4OC(C)=O)[C@@]2(C)C[C@@H]1N1CCCCC1.[Br-] [VECURONIUM BROMIDE] | Not Active | Not Active | Not Active | – | Not Active | – | Not Active | Not Active | Not Active | – | Not Active | – | Not Active | Not Active | –
CCS(=O)(=O)CCn1c([N+](=O)[O-])cnc1C [TINIDAZOLE] | Not Active | Not Active | Not Active | – | Not Active | – | Not Active | Not Active | Not Active | – | Not Active | – | – | – | –
CC(C)OC(=O)C(C)(C)Oc1ccc(C(=O)c2ccc(Cl)cc2)cc1 [FENOFIBRATE] | – | – | Not Active | – | Not Active | – | – | – | Not Active | – | – | – | Not Active | Not Active | 4.81
CCN(CC)CC#CCOC(=O)C(O)(c1ccccc1)C1CCCCC1 (stereo unspecified) [OXYBUTYNIN] | – | – | Not Active | – | Not Active | – | – | – | Not Active | – | Not Active | – | Not Active | Not Active | –
CC(=O)Nc1nnc(S(N)(=O)=O)s1 [ACETAZOLAMIDE] | – | – | Not Active | – | Not Active | – | – | – | Not Active | – | Not Active | – | Not Active | Not Active | –
CC[C@@H](CO)NC(=O)[C@@H]1C=C2c3cccc4c3c(cn4C)C[C@H]2N(C)C1 [METHYSERGIDE] | – | – | Not Active | – | Not Active | – | – | – | Not Active | – | Not Active | – | Not Active | Not Active | –
O=c1[nH]c2ccccc2n1CCCN1CCC(n2c(=O)[nH]c3cc(Cl)ccc32)CC1 [DOMPERIDONE] | – | – | Not Active | – | Not Active | – | – | – | Not Active | – | Not Active | – | – | – | –
COc1ccc(CN2CCNCC2)c(OC)c1OC [TRIMETAZIDINE] | Not Active | Not Active | Not Active | – | Not Active | – | Not Active | Not Active | Not Active | – | Not Active | – | – | – | –
